Results as given in patent USRE40278E1, “Heterocyclic amines having central nervous system activity” (priority 1993, dated 2008).

Experiments:
[1] = tested on: aggressive behavior of isolated male CF-1 mice; test: isolation-induced aggression assay (latency to attack an intruder mouse); type: in vivo; settings: isolated male CF-1 mice dosed p.o., intruder introduced thirty minutes later, n=6
Description: Compounds of the subject invention were evaluated in an isolation-induced aggression assay to measure their ability to control or arrest aggressive behavior as measured against a saline “Control”. Male CF-1 mice (Charles River Labs) were housed singly in wire cage drawers for several weeks of isolation and aggression training. After this, the isolated mouse (weighing 30-50 g) initiated an “attack” whenever an intruder mouse was placed into his cage. Intruders were male CF-1 Charles River mice, about the same size as isolated mice and housed in groups of 12 per cage. For drug testing, the isolated mice were dosed orally (p.o.) with drug or 0.25% methylcellulose vehicle. Thirty minutes later, an intruder mouse was introduced and the latency to attack was recorded. Treatment groups (n=6), including a positive control, were tested by an observer blinded to the treatments, and there was an additional non-blinded vehicle group.

5-HT1DA-Clone = biological target: T1, 5-HT1DA-Clone (Homo sapiens, UniProt P28221); test: receptor binding assay, 5-HT1DA clone (5HT ligand)
T1 construct: expressed in transfected cells
T1 sequence (P28221 whole entry): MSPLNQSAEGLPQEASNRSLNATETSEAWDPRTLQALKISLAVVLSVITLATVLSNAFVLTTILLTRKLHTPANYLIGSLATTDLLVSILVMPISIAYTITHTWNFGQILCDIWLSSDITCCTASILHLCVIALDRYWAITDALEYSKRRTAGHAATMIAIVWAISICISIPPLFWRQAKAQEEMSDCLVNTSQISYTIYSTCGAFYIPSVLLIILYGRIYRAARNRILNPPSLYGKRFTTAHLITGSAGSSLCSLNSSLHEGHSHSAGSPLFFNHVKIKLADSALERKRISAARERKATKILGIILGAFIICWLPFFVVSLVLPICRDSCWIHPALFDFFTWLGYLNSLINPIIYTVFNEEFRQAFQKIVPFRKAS
Description: (§1) Compounds of Example 4 (Formula I where R1 and R2 are propyl, Y is hydrogen and X is —OCH3) were evaluated in an receptor binding assay (5HT Ligand) for calculation of IC50 values and Ki (nM) values. Receptor binding assays are well known tests for evaluating compounds for activity as described in “Cloning and Pharmacological Characterization of a Novel Human […] Receptor Sub-Type”, Mol. Pharm., 42 439-44 (1992), herein incorporated by reference.

5-HT1DB-Clone = biological target: T2, 5-HT1DB-Clone (Homo sapiens, UniProt P28222); test: receptor binding assay, 5-HT1DB clone (5HT ligand)
T2 construct: expressed in transfected cells
T2 sequence (P28222 whole entry): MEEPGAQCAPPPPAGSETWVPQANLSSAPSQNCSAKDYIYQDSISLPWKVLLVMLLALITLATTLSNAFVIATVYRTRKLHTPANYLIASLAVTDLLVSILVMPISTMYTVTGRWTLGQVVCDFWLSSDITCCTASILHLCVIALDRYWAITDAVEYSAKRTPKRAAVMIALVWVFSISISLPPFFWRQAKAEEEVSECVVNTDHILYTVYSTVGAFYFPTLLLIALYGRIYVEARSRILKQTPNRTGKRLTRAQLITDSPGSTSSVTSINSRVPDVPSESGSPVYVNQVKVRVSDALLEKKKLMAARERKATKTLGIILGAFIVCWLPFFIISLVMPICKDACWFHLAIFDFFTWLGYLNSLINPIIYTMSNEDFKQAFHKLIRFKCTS
Description: as §1

5-HT1A-Clone = biological target: T3, 5-HT1A-Clone (Homo sapiens, UniProt P08908); test: receptor binding assay, 5-HT1A clone (DPAT ligand)
T3 construct: expressed in transfected cells
T3 sequence (P08908 1-422): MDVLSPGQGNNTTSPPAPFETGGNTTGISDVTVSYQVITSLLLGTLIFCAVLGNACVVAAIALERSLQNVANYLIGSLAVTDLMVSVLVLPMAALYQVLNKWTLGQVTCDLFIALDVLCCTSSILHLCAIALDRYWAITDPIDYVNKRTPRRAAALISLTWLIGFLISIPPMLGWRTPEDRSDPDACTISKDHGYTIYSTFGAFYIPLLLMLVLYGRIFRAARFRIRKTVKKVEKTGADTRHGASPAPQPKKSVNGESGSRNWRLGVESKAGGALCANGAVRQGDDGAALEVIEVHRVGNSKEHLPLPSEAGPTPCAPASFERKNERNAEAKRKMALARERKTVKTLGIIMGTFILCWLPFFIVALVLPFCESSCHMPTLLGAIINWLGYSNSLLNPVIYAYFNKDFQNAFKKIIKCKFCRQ
Description: as §1

Compound | latency to attack [1] | Ki (5-HT1DA-Clone) | Ki (5-HT1DB-Clone) | receptor selectivity (in words) (5-HT1DB-Clone; 5-HT1DB versus 5-HT1DA, conclusion from the Ki table) | Ki (5-HT1A-Clone) | enantiomer that carries the activity (in words) (5-HT1A-Clone; comparison of R- and S-enantiomer, conclusion from the Ki table)
CN[C@@H]1Cc2cccc3c2n(c(=O)n3OC)C1 [Example 1, (R)-5-Methylamino-1-methoxy-5,6-dihydro-4H-imidazo[4,5,1-ij]quinolin-2(1H)-one] | 600 s |  |  |  |  | 
CCCN(CCC)C1Cc2cccc3c2n(c(=O)n3OC)C1 (racemic) [Ex. 4 Racemate] |  | 15.2 nM | 7.17 nM | selective for the 5HT1DB receptor |  | 
CCCN(CCC)[C@@H]1Cc2cccc3c2n(c(=O)n3OC)C1 [Ex. 4 R-Enantiomer, (R)-5-Dipropylamino-1-methoxy-5,6-dihydro-4H-imidazo[4,5,1-ij]quinolin-2(1H)-one] |  | 38 nM | 58 nM |  | 97 nM | the activity resides in the R-enantiomer
CCCN(CCC)[C@H]1Cc2cccc3c2n(c(=O)n3OC)C1 [Ex. 4 S-Enantiomer] |  |  |  |  | 904 nM | 
